{"source": "patent US20230265205A1", "about": "“METABOLISM-BASED CHIMERIC ANTIGEN RECEPTORS AND METHODS OF TREATMENT” (Arizona Board of Regents on behalf of Arizona State …, priority 2020, published 2023)", "tested_on": "C57BL/6j bone marrow derived dendritic cells", "test": "Seahorse extracellular acidification rate (ECAR) assay in glucose-free media", "format": "cell-based", "details": "PFK15 200 nM, 4 hours", "procedure": "F16BP particles rescues glycolysis even in the presence of glycolytic inhibitor PFK15. In order to test if F16BP can indeed functionally accelerate glycolysis in the presence of low glucose environment, extracellular acidification rate (ECAR), which measures changes in extracellular pH due to lactic acid production (a byproduct of glycolysis) was determined using Seahorse assays. In this case, although, C57BL/6j bone marrow derived dendritic cells (DCs, another type of phagocytic cell) were utilized, it is believed that CAR macrophages will behave similarly. Specifically, DCs were treated with PFK15 (200 nM), or F16BP particles (0.1 mg/mL) or PFK15+F16BP particles. After 4 hours of treatment with formulations, changes in pH using ECAR were recorded in glucose-free media. In a step-wise manner cells were added with oligomycin to measure ATP production and proton leak, Carbonyl cyanide-4 (trifluoromethoxy) phenylhydrazone (FCCP—disrupts mitochondrial membrane potential) to measure maximal respiration, rotenone and antimycinA (shuts down mitochondrial respiration) to measure spare capacity."}
{"smiles": "O=C(/C=C/c1ccc2ccccc2n1)c1ccncc1", "note": "[PFK15]", "values": [{"measurement": "ECAR values relative to no treatment control", "value": "even lower than no treatment control"}]}
